How the values were obtained:
[1] = system: human PGHS-2 protein expression; assay: Prostoglandin endoperoxide synthase-2 (PGHS-2) assay, protein expression in LPS stimulated human monocytes; assay type: cell-based
Method: The followiong assay describes a method for determining the inhibitory effects of compounds of Formula (I) on human PGHS-2 protein expression in LPS stimulated human monocytes
Human peripheal blood monocytes were isolated from buffy coats by centrifugation through Ficoll and Percoll gradients. Cells were seeded at 2×10^6/well in 24 well plates and allowed to adhere for 1 hour in RPMI supplemented with 1% human AB serum, 20 mM L-glutamine, Penicillin-Streptomycin and 10 mM HEPES. Compounds were added at various concentrations and incubated at 37° C. for 10 minutes. LPS was added at 50 ng/well (to induce enzyme expression) and incubated overnight at 37° C. The supernatant was removed and cells washed once in cold PBS. The cells were lysed in 100 μl of cold lysis buffer(50 mM Tris/HCl pH 7.5, 150 mM NaCl, 1% NP40, 0.5% sodium deoxycholate, 0.1% SDS, 300 ug/ml DNAse, 0.1% TRITON X-100, 1 mM PMSF, 1 mM leupeptin, 1 mM pepstatin). The lysate was centrifuged (10,000× g for 10 min. at 4° C.) to remove debris and the soluble fraction was subjected to SDS PAGE. analysis (12% gel). Protein separated on the gel were transferred onto nitrocellulose membrane by electrophoretic means for 2 hours at 60 volts. The membrane was pretreated for one hour in PBS/0.1% Tween 20 with 5% non-fat dry milk. […]

Row | melting point | SMILES | further results
1 |  | C[C@@H]1C[C@H]2[C@@H]3CCC4=CC(=O)C=C[C@]4(C)[C@@]3(F)[C@@H](O)C[C@]2(C)[C@@]1(O)C(=O)CO [Dexamethasone] | inhibition of LPS induced PGHS-2 protein expression ([1]; rank order potency similar to that for inhibiting cytokine production): active
2 | 228 to 230 °C | Nc1nccc(-c2c(-c3ccc(F)cc3)ncn2C2CCSCC2)n1 [Example 91, 5-(2-Amino-4-pyrimidinyl)-4-(4-fluorophenyl)-1-(tetrahydro-4-thiopyranyl)imidazole] | 
3 | 193 to 194 °C | CNc1nccc(-c2c(-c3ccc(F)cc3)ncn2CCC#N)n1 [Example 93, 5-(2-Methylamino-4-pyrimidinyl)-4-(4-fluorophenyl)-1-(2-cyanoethyl)imidazole] | 
4 |  | CC(Cc1ccc(O)c(O)c1)C(C)Cc1ccc(O)c(O)c1 (stereo not shown) [NDGA] | inhibition of LPS induced PGHS-2 protein expression ([1]; up to 10 uM): inactive
